US20200299777A1, “Methods for Resensitizing p53-Null Cells to Cancer Chemotherapy” (UNIVERSITY OF SOUTH CAROLINA, priority 2019, published 2020)

How the values were obtained:
[1] = test system: TP53-KO hESCs; assay: Cell viability assay (resazurin), TP53 knockout human ES cells; type: cell-based; conditions: for sensitivity/resistance of TP53-KO hESCs (cell viability): 7-point two-fold dilution starting with 10 μM
Procedure: (§1) Human H9 embryonic stem cells (ESCs) (Lot No.: WIC-WA09-MB-001, WiCell, Wisconsin) and derivatives were maintained at 37° C., 5% CO2 in chemical-defined medium TeSR-E8 medium (Stemcell Tech.) with 100 U/ml penicillin & 100 μg/ml streptomycin (Gibco) on Matrigel-coated (# CB40230A, Corning) tissue culture vessels. Authentication of H9 ESCs were performed by WiCell. ESCs were passaged every 4 to 6 days to maintain sub-confluence using 0.5 mM EDTA as described previously. Human colon cancer RKO cells (kindly given by Dr. Bert Vogelstein) and its derivatives were maintained at 37° C., 5% CO2 in McCoy's 5A media (Fisher) supplemented with 10% FBS and 100 U/ml penicillin & 100 μg/ml streptomycin (Gibco). RKO cells were passaged every 3 to 4 days to maintain sub-confluence (authentication of RKO cell line was performed by JHU-GRCF Biorepository & Cell Center). Cells were screened for mycoplasma before experiments using a MycoAlert™ Mycoplasma Detection Kit (Lonza).
TP53 knockout hESCs and RKO cells were generated using CRISPR/Cas9 as described previously with minor modifications. Briefly, human codon-optimized Streptococcus pyogenes wild type Cas9 (Cas9-2A-GFP) was obtained from Addgene (#44719). Chimeric guide RNA expression cassettes with different small guide RNA, TP53_Up_sgRNA: 5′-[…]-3′ (SEQ ID NO: 1) and TP53_Down_sgRNA: 5′-[…]-3′ (SEQ ID NO: 2) were ordered as gBlock. These gBlocks were amplified by PCR using primers: gBlock_Amplifying_F: 5′-[…]-3′ (SEQ ID NO: 3) and gBlock_Amplifying_R: 5′-[…]-3′ (SEQ ID NO: 4). The PCR product was purified by Agencourt Ampure XP PCR Purification beads according to manufacturer's protocol (Beckman Coulter). 1.5 μg of Cas9 plasmid and 0.5 μg of each gRNAgBlock were co-transfected into hESCs via Lipofectamine™ 3000 (Thermo Fisher Scientific). […] For TP53-KO RKO cells, single clones were picked up and validated by PCR and Western blotting.
(§2) NCI Approved Oncology Drug Set IV containing 127 FDA-approved anticancer drugs was obtained from the NCI under a material transfer agreement. TP53 knockout or wild-type human ES cells were seeded in 96-well microplates in E8 medium, with 6,000 cells per well that would reach about 85% confluent at the end of the assay. Human ES cells were plated one day before treatment with a 7-point two-fold dilution series (starting with 10 μM) of each compound or solvent (dimethyl sulfoxide, DMSO or Dimethylformamide, DMF) control. After 72 hours incubation, cells were stained with 35 μM resazurin (Sigma), then quantification of fluorescent signal intensity was performed on Thermo Fluorskan™ Ascent plate reader at excitation and emission wavelengths of 544/590 nm. Data were normalized to the solvent control (DMSO or DMF) group. The area under a curve (AUC) was calculated using auc function (flux package) in R. The two-side t-test was performed with tlest function in R. The hierarchical clustering analysis of drugs AUC pattern in different samples was carried out using heatmap.2 function (gplots package) in R (All R code available). Viability response curves of Cisplatin and Paclitaxel on TP53-KO hESCs or RKO cells were generated using drc package (Analysis of Dose-Response Curves) in R.

[2] = test system: TP53-WT hESCs; assay: Cell viability assay (resazurin), TP53 wild-type human ES cells; type: cell-based; conditions: for sensitivity of TP53-WT hESCs (cell viability): all tested concentrations
Procedure: as §1, §2

[3] = test system: TP53-KO RKO cells; assay: Cisplatin viability response on TP53 knockout RKO colon cancer cells; type: cell-based, human
Procedure: as §1, with “RKO cells were passaged every 3 to 4 days to maintain sub-confluence (authentication of RKO cell line was performed by JHU-GRCF Biorepository & Cell Center). Cells were screened for mycoplasma before experiments using a MycoAlert™ Mycoplasma Detection Kit (Lonza).” left out
NCI Approved Oncology Drug Set IV containing 127 FDA-approved anticancer drugs was obtained from the NCI under a material transfer agreement. […] After 72 hours incubation, cells were stained with 35 μM resazurin (Sigma), then quantification of fluorescent signal intensity was performed on Thermo Fluorskan™ Ascent plate reader at excitation and emission wavelengths of 544/590 nm. […] The area under a curve (AUC) was calculated using auc function (flux package) in R. The two-side t-test was performed with tlest function in R. The hierarchical clustering analysis of drugs AUC pattern in different samples was carried out using heatmap.2 function (gplots package) in R (All R code available). […]

[4] = test system: ZNF207/BuGZ knockout TP53-KO hESCs; assay: Validation of ZNF207/BuGZ knockout in Cas9-expressing TP53-KO hESCs treated with Cisplatin (qPCR of knockout locus); type: cell-based, human
Procedure: Human TP53 knockout embryonic stem cells were infected at low MOI by viruses produced using pCLIP-Cas9-Nuclease-EFS-Blast (TransOMIC) and selected using blastcidin (10 μg/ml). The stable Cas9-expressing TP53-KO hESCs were infected with viruses with two sgRNAs against gene ZNF207/BuGZ (# TEDH-1090944, TransOMIC) or control gene OR1C1 (# TEDH-1055091, TransOMIC). These two sgRNAs could induce fragment deletion. We treated these cells with either 200 nM Cisplatin or vehicle DMF. We used realtime quantitative PCR to quantify the ZNF207 knockout locus, using gRNA flanking primers that only amplify when the intervening sequence has been deleted.
The relative percentage of ZNF207 or OR1C1 knockout cell number was defined as:
2^−ΔCT(Gene−LINE)/2^−ΔCT(Gene−LINE) at Day0.

[5] = test system: TP53-WT hESCs; assay: Cell viability assay (resazurin), TP53 wild-type human ES cells; type: cell-based; conditions: 200 nM
[6] = test system: TP53-KO RKO cells; assay: Paclitaxel and Cisplatin drug synergy experiment on TP53-KO RKO cells; type: cell-based, human; conditions: Paclitaxel plus Cisplatin matrix, 96 hours, two TP53-KO clones, ZIP synergy model
Procedure: (§3) A Paclitaxel and Cisplatin drug matrix (12×8) in a 96-well plate was made for drug synergy experiment. Paclitaxel on row was an 11-point two-fold dilution series with starting concentration of 0.0016 μM, and Cisplatin on column was a 7-point two-fold dilution series with starting concentration of 2 μM, 5000 TP53-KO hESCs per well or 2000 TP53-KO RKO cells per well were plated on three 96-well plates one day before treatment with Paclitaxel and Cisplatin drug matrix. After 72 hours incubation for TP53-KO hESCs and 96 hours incubation for TP53-KO RKO cells, cells were stained with 35 μM resazurin (Sigma), then quantification of fluorescent signal intensity was performed on Thermo Fluorskan™ Ascent plate reader at excitation and emission wavelengths of 544/590 nm. The drug synergy scores were evaluated using ZIP model (Zero Interaction Potency model) in synergyfinder package.

[7] = test system: TP53-KO hESCs; assay: Paclitaxel and Cisplatin drug synergy experiment on TP53-KO hESCs; type: cell-based, human; conditions: low concentration Paclitaxel plus Cisplatin matrix, 72 hours, ZIP synergy model
Procedure: as §3

[8] = 72 hours, resazurin, low concentrations

| Compound | sensitivity/resistance of TP53-KO hESCs (cell viability) ([1]; 72 hours, resazurin) | sensitivity of TP53-WT hESCs (cell viability) ([2]; 72 hours, resazurin) | sensitivity of TP53-WT hESCs at low concentration (cell viability) ([2]; 72 hours, resazurin) | further results |
| --- | --- | --- | --- | --- |
| CCCCCOC(=O)Nc1nc(=O)n([C@@H]2O[C@H](C)[C@@H](O)[C@H]2O)cc1F [Capecitabine] | resistant | resistant | – | – |
| N.N.O=C([O-])C1(C(=O)[O-])CCC1.[Pt+2] [Carboplatin] | resistant | – | very sensitive | – |
| N.N.[Cl][Pt][Cl] [Cisplatin] | resistant | – | very sensitive | resistance of TP53-KO hESCs at the optimal concentration ([1]; 200 nM): very resistant; resistance of TP53-KO RKO cells compared to TP53-WT RKO cells [3]: resistant; sensitivity of ZNF207/BuGZ knockout TP53-KO hESCs ([4]; 200 nM vs vehicle DMF, two more TP53-KO hESC lines): more sensitive; depletion of ZNF207/BuGZ knockout cells versus DMF vehicle control ([4]; 200 nM, ten days, qPCR at day 6 and 10): depleted faster; sensitivity of TP53-WT hESCs at the optimal concentration [5]: very sensitive; inhibition of Cisplatin on TP53-KO RKO cells in combination with Paclitaxel [6]: increased greatly; inhibition of Cisplatin on TP53-KO hESCs in combination with Paclitaxel [7]: increased |
| CC(=O)O[C@@]12CO[C@@H]1C[C@H](O)[C@@]1(C)C(=O)[C@H](O)C3=C(C)[C@@H](OC(=O)[C@H](O)[C@@H](NC(=O)OC(C)(C)C)c4ccccc4)C[C@@](O)([C@@H](OC(=O)c4ccccc4)[C@H]21)C3(C)C [Docetaxel] | sensitive | sensitive | – | – |
| O=c1[nH]cc(F)c(=O)[nH]1 [Fluorouracil] | – | – | – | resistance of TP53-KO hESCs at low concentrations [1, 8]: resistant; sensitivity of TP53-WT hESCs at high concentrations ([2]; 72 hours, resazurin, high concentrations): sensitive; resistance of TP53-WT hESCs at low concentrations [2, 8]: resistant |
| CCc1c2c(nc3ccc(OC(=O)N4CCC(N5CCCCC5)CC4)cc13)-c1cc3c(c(=O)n1C2)COC(=O)[C@]3(O)CC [Irinotecan] | resistant | – | – | sensitivity of TP53-WT hESCs at low concentration (0.16 μM) ([2]; 72 hours, resazurin): very sensitive |
| COc1ccc(C2=N[C@@H](c3ccc(Cl)cc3)[C@@H](c3ccc(Cl)cc3)N2C(=O)N2CCNC(=O)C2)c(OC(C)C)c1 [Nutlin-3a] | – | – | – | growth inhibitory effect on TP53-WT hESCs ([2]; very low concentrations): severely growth arrested |
| O=C(c1cc(Cc2n[nH]c(=O)c3ccccc23)ccc1F)N1CCN(C(=O)C2CC2)CC1 [Olaparib] | resistant | – | very sensitive | – |
| O=C1[O][Pt]2([NH][C@@H]3CCCC[C@H]3[NH]2)[O]C1=O [Oxaliplatin] | resistant | – | – | sensitivity of TP53-WT hESCs at low concentration (0.16 μM) ([2]; 72 hours, resazurin): very sensitive |
| CC(=O)O[C@H]1C(=O)[C@@]2(C)[C@H]([C@H](OC(=O)c3ccccc3)[C@]3(O)C[C@H](OC(=O)[C@H](O)[C@@H](NC(=O)c4ccccc4)c4ccccc4)C(C)=C1C3(C)C)[C@]1(OC(C)=O)CO[C@@H]1C[C@@H]2O [Paclitaxel] | sensitive | sensitive | – | – |
